Data published in patent publication US20100317046A1, “Non-Endogenous, Constitutively Activated Versions of Human G Protein Coupled Receptor: FSHR” (priority 2002, published 2010).
Positions count from the first letter of the chain named.

Key:
endogenous FSHR ("WT") = molecular target: T1, endogenous FSHR ("WT") (Homo sapiens, UniProt P23945, E197A/L198V/N112T); assay: Alpha Screen cAMP accumulation, endogenous FSHR (WT); format: cell-based; details: 293 cells expressing WT FSHR, FIG. 3
T1 construct: The 2.1 kb PCR fragment was then cloned into EcoRV-EcoRI site of CMVp expression vector; expressed in transfected cells
T1 sequence (P23945 18-695 N112T/E197A/L198V): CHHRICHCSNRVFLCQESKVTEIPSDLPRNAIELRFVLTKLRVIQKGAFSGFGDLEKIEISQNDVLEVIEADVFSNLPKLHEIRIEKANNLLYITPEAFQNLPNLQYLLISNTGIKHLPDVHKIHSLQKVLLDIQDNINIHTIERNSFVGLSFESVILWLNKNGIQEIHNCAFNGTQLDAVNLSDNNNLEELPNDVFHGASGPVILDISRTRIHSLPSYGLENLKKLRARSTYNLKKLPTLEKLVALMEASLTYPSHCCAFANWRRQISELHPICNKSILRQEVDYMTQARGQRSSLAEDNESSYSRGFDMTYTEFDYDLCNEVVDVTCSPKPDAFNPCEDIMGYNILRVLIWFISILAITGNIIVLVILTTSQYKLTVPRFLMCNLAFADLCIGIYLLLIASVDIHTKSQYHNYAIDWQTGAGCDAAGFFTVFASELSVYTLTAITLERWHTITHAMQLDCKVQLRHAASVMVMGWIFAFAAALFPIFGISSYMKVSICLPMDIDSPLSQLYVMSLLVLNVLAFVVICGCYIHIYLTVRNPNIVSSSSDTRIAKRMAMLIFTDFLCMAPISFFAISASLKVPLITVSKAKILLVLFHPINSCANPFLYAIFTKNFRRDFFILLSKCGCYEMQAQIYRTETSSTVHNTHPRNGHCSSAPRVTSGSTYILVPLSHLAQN
Protocol: (§1) Approximately 12×10^6 293 cells are plated on a 15 cm tissue culture plate. Grown in DME High Glucose Medium containing ten percent fetal bovine serum and one percent sodium pyruvate, L-glutamine, and anti-biotics. Twenty-four hours following plating of 293 cells (or to ˜80% confluency), the cells are transfected using 12 μg of DNA. The 12 μg of DNA is combined with 60 μl of lipofectamine and 2 mL of DME High Glucose Medium without serum. The medium is aspirated from the plates and the cells are washed once with medium without serum. The DNA, lipofectamine, and medium mixture are added to the plate along with 10 mL of medium without serum. Following incubation at 37 degrees Celsius for four to five hours, the medium is aspirated and 25 ml of medium containing serum is added. Twenty-four hours following transfection, the medium is aspirated again, and fresh medium with serum is added. Forty-eight hours following transfection, the medium is aspirated and medium with serum is added containing geneticin (G418 drug) at a final concentration of 500 μg/mL. The transfected cells will undergo selection for positively transfected cells containing the G418 resistant gene. […]
(§2) The media from Example 3(b) above was aspirated and rinsed 1× with PBS (5-10 ml/flask). […] Following incubation, the wells were read on Alpha Quest and measured for light units. […]

[1] = molecular target: T2, non-endogenous FSHR ("L460R") (Homo sapiens, UniProt P23945, E197A/L198V/L460R/N112T); assay: Alpha Screen cAMP accumulation, non-endogenous constitutively activated FSHR (L460R); format: cell-based; details: L460R versus WT, FIG. 3
T2 construct: expressed in transfected cells
T2 sequence (P23945 18-695 N112T/E197A/L198V/L460R): T1 sequence (P23945 18-695 N112T/E197A/L198V) with L443R
Protocol: as §1, §2

- EC50 (endogenous FSHR ("WT")): ~3 nM
- efficacy for L460R version of FSHR compared with the WT receptor [1]: better efficacy
SMILES: CCCCCc1ccc(C(=O)N2CCCCC2C(=O)Nc2ccc3c(c2)c2ccccc2n3CC)c(=O)o1 (centres unmarked) [Compound A, 1-[(2-oxo-6-pentyl-2H-pyran)-3-carbonyl]-piperidine-2-carboxylic acid-3-(9-ethylcarbazolyl) amide]
